Measured values from the NIST ThermoML archive (doi:10.1016/j.jct.2004.06.009).
Numbers after ± are expanded uncertainties.

Assay: molar heat capacity at constant pressure
Conditions: 101.33 kPa

CC12CC3CC(C1)CC(C)(C3)C2 [1,3-dimethyladamantane]
Conditions | molar heat capacity at constant pressure [J/K/mol]
164.17 K, Crystal 2 | 123.65 ± 1.3
165.15 K, Crystal 2 | 125.01 ± 1.3
166.14 K, Crystal 2 | 125.6 ± 1.3
167.12 K, Crystal 2 | 126.03 ± 1.3
168.11 K, Crystal 2 | 127.28 ± 1.3
169.09 K, Crystal 2 | 127.61 ± 1.3
170.07 K, Crystal 2 | 128.22 ± 1.3
171.06 K, Crystal 2 | 129.42 ± 1.3
172.04 K, Crystal 2 | 130.05 ± 1.3
173.02 K, Crystal 2 | 130.24 ± 1.3
174 K, Crystal 2 | 130.98 ± 1.3
174.98 K, Crystal 2 | 131.94 ± 1.3
175.95 K, Crystal 2 | 133.61 ± 1.3
177.89 K, Crystal 2 | 134.48 ± 1.3
178.87 K, Crystal 2 | 134.87 ± 1.3
179.85 K, Crystal 2 | 135.66 ± 1.3
180.58 K, Crystal 2 | 136.61 ± 1.4
181.56 K, Crystal 2 | 136.89 ± 1.4
182.53 K, Crystal 2 | 137.98 ± 1.4
183.51 K, Crystal 2 | 138.41 ± 1.4
184.48 K, Crystal 2 | 139.16 ± 1.4
185.46 K, Crystal 2 | 140.28 ± 1.4
186.43 K, Crystal 2 | 141.09 ± 1.4
187.4 K, Crystal 2 | 142.02 ± 1.4
189.35 K, Crystal 2 | 143.47 ± 1.4
190.3 K, Crystal 2 | 143.86 ± 1.4
194.17 K, Crystal 2 | 146.97 ± 1.4
195.13 K, Crystal 2 | 148.03 ± 1.4
197.07 K, Crystal 2 | 149.99 ± 1.4
198.04 K, Crystal 2 | 150.21 ± 1.4
198.92 K, Crystal 2 | 151.08 ± 1.4
199.88 K, Crystal 2 | 152.08 ± 1.4
201.81 K, Crystal 2 | 154.34 ± 1.4
202.78 K, Crystal 2 | 154.59 ± 1.4
203.74 K, Crystal 2 | 155.44 ± 1.4
204.71 K, Crystal 2 | 156.27 ± 1.4
205.67 K, Crystal 2 | 156.84 ± 1.4
206.64 K, Crystal 2 | 157.68 ± 1.4
207.51 K, Crystal 2 | 158.4 ± 1.4
208.55 K, Crystal 2 | 158.98 ± 1.4
209.51 K, Crystal 2 | 160.26 ± 1.4
210.47 K, Crystal 2 | 161.38 ± 1.4
211.43 K, Crystal 2 | 162.2 ± 1.4
212.27 K, Crystal 2 | 162.95 ± 1.4
213.23 K, Crystal 2 | 163.97 ± 1.5
214.19 K, Crystal 2 | 164.82 ± 1.5
215.15 K, Crystal 2 | 165.6 ± 1.5
216.12 K, Crystal 2 | 166.3 ± 1.5
217.08 K, Crystal 2 | 166.99 ± 1.5
218.03 K, Crystal 2 | 167.93 ± 1.5
218.99 K, Crystal 2 | 169.35 ± 1.5
219.95 K, Crystal 2 | 170.97 ± 1.5
225.79 K, Crystal 1 | 199.33 ± 1.6
226.66 K, Crystal 1 | 199.97 ± 1.6
227.53 K, Crystal 1 | 201.06 ± 1.6
228.4 K, Crystal 1 | 201.46 ± 1.6
230.04 K, Crystal 1 | 202.98 ± 1.6
230.88 K, Crystal 1 | 203.84 ± 1.9
230.9 K, Crystal 1 | 202.87 ± 1.9
231.76 K, Crystal 1 | 203.35 ± 1.6
232.42 K, Crystal 1 | 205.24 ± 1.6
233.95 K, Crystal 1 | 206.13 ± 1.6
235.48 K, Crystal 1 | 207.28 ± 1.6
237 K, Crystal 1 | 208.26 ± 1.6
238.51 K, Crystal 1 | 209.76 ± 1.6
240.02 K, Crystal 1 | 210.33 ± 1.6
241.45 K, Crystal 1 | 210.84 ± 1.6
242.96 K, Crystal 1 | 212.78 ± 1.6
244.46 K, Crystal 1 | 214.29 ± 1.7
251.29 K, Liquid | 225.79 ± 1.7
252.68 K, Liquid | 226.58 ± 1.7
254.08 K, Liquid | 227.55 ± 1.7
255.49 K, Liquid | 228.41 ± 1.7
256.89 K, Liquid | 229.48 ± 1.7
258.3 K, Liquid | 230.29 ± 1.7
259.7 K, Liquid | 231 ± 1.7
261.1 K, Liquid | 232.08 ± 1.7
262.5 K, Liquid | 232.76 ± 1.7
263.89 K, Liquid | 233.85 ± 1.7
265.29 K, Liquid | 235.31 ± 1.7
266.68 K, Liquid | 235.54 ± 1.7
268.08 K, Liquid | 236.58 ± 1.8
269.46 K, Liquid | 237.84 ± 1.8
270.85 K, Liquid | 239.09 ± 1.8
272.24 K, Liquid | 239.93 ± 1.8
273.56 K, Liquid | 240.47 ± 1.8
274.94 K, Liquid | 241.87 ± 1.8
277.72 K, Liquid | 243.58 ± 1.8
279.1 K, Liquid | 244.65 ± 1.8
280.48 K, Liquid | 245.61 ± 1.8
281.85 K, Liquid | 246.79 ± 1.8
283.23 K, Liquid | 247.54 ± 1.8
284.61 K, Liquid | 248.53 ± 1.8
285.98 K, Liquid | 249.45 ± 1.8
287.36 K, Liquid | 250.28 ± 1.8
288.73 K, Liquid | 251.39 ± 1.8
290.1 K, Liquid | 252.27 ± 1.8
291.46 K, Liquid | 253.18 ± 1.8
292.84 K, Liquid | 254.46 ± 1.8
294.2 K, Liquid | 254.72 ± 1.8
295.48 K, Liquid | 256.04 ± 1.8
296.85 K, Liquid | 256.83 ± 1.8
298.22 K, Liquid | 258.31 ± 1.8
299.58 K, Liquid | 259.27 ± 1.8
300.95 K, Liquid | 260.05 ± 1.8
302.3 K, Liquid | 260.79 ± 1.8
303.66 K, Liquid | 261.66 ± 1.9
306.37 K, Liquid | 263.51 ± 1.9
307.73 K, Liquid | 264.36 ± 1.9
309.08 K, Liquid | 265.4 ± 1.9
310.42 K, Liquid | 266.59 ± 1.9
311.76 K, Liquid | 267.05 ± 1.9
313.08 K, Liquid | 268.41 ± 1.9
314.41 K, Liquid | 269.34 ± 1.9
315.76 K, Liquid | 270.21 ± 1.9
317 K, Liquid | 270.69 ± 1.9
318.33 K, Liquid | 272.36 ± 1.9
319.67 K, Liquid | 272.93 ± 1.9
321.02 K, Liquid | 273.59 ± 1.9
322.36 K, Liquid | 274.52 ± 1.9
323.7 K, Liquid | 275.69 ± 1.9
325.04 K, Liquid | 276.85 ± 1.9
326.38 K, Liquid | 276.96 ± 1.9
327.72 K, Liquid | 278.17 ± 1.9
329.06 K, Liquid | 279.49 ± 1.9
330.4 K, Liquid | 280.25 ± 1.9
331.73 K, Liquid | 281.52 ± 1.9
334.39 K, Liquid | 283.43 ± 1.9
335.72 K, Liquid | 284.46 ± 1.9
337.04 K, Liquid | 285.09 ± 1.9
338.23 K, Liquid | 285.9 ± 1.9
339.56 K, Liquid | 286.67 ± 1.9
340.88 K, Liquid | 287.92 ± 1.9
342.17 K, Liquid | 289.16 ± 2
343.47 K, Liquid | 290.19 ± 2
344.79 K, Liquid | 291.02 ± 2
346.09 K, Liquid | 292.18 ± 2
347.39 K, Liquid | 292.25 ± 2
348.71 K, Liquid | 293.14 ± 2
350.02 K, Liquid | 294.11 ± 2
351.34 K, Liquid | 294.99 ± 2
352.65 K, Liquid | 295.66 ± 2
353.96 K, Liquid | 296.46 ± 2
355.26 K, Liquid | 297.51 ± 2
356.57 K, Liquid | 298.73 ± 2
357.86 K, Liquid | 298.97 ± 2
359 K, Liquid | 299.74 ± 2
